From patent publication US10604555B2, “GIP derivatives and uses thereof” (priority 2018, dated 2020)
*1 amine or outer side, *2 acyl side, *3 side chain or, on linkers, in order; H or OH if unused. Where no end group is shown, it is not given here. Side-chain parts run from the residue outwards. [ ]: non-standard residue; d: D form. The star is where a group is joined. C18 diacid = O=C(O)CCCCCCCCCCCCCCCCC(=O)*; γGlu = O=C(O)[C@H](CCC(=O)[*:2])N[*:1]; Nle = CCCC[C@H](N)C(=O)O; AEEA = NCCOCCOCC(=O)O; Aib = CC(C)(N)C(=O)O

Tests used:
Format in all cases: cell-based
Conditions in all cases: 0.2% HSA
[1] = target: T1, human GIP receptor (Homo sapiens, UniProt P48546); assay: In vitro potency (CRE luciferase; whole cells), BHK CRE luc2P hGIPR
T1 construct: expressed in transfected cells; host or cells: BHK (parent line BHKTS13), BHK CRE luc2P hGIPR clone #5
T1 sequence (P48546 22-466): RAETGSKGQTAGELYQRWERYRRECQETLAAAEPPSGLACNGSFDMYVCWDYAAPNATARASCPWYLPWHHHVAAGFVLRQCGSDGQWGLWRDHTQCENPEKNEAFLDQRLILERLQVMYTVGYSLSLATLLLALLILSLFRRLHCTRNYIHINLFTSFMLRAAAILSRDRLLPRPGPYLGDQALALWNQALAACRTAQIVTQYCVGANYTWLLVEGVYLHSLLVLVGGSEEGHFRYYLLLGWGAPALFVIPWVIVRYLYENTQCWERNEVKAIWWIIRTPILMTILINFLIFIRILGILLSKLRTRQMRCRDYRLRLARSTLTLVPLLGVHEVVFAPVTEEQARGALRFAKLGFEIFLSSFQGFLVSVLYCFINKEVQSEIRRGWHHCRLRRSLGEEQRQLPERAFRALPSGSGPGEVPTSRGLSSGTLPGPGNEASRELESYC
Outline: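 BHK clones carrying a CRE luciferase element, each transfected with one human receptor, were seeded at 5000 cells/well overnight. Compounds were diluted in buffer with 1% ovalbumin and 0.1% Pluronic F-68, with or without human serum albumin. Luminescence was read after steadylite plus; non-linear log(agonist)-response fit, averaged over at least two replicates.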

[2] = target: T2, human glucagon receptor (Homo sapiens, UniProt P47871); assay: In vitro potency (CRE luciferase; whole cells), BHK CRE luc2P hGCGR
T2 construct: expressed in transfected cells; host or cells: BHK (parent line BHKTS13), BHK CRE luc2P hGCGR clone #18
Description: (§1) In Vitro Potency (CRE Luciferase; Whole Cells)
(§2) The in vitro potency is the measure of human GIP, GLP-1 or glucagon receptor activation, respectively, in a whole cell assay.
(§3) In vitro potency was determined by measuring the response of the human GIP, GLP-1 or glucagon receptor in a reporter gene assay in individual cell lines. […] When the respective receptor is activated it results in the production of cAMP, which in turn results in the luciferase protein being expressed. When assay incubation is completed the luciferase substrate (luciferin) is added and the enzyme converts luciferin to oxyluciferin to produce bioluminescence. The luminescence is measured as the readout for the assay.
(§4) The cells were derived from a clone containing the CRE luciferase element and were established by further transfection with the respective receptor to obtain the current clone.
(§5) The cells were cultured at 5% CO2 in Cell Culture Medium. They were aliquoted and stored in liquid nitrogen. The cells were kept in passage and were seeded out the day before each assay.
(§6) The Assay Buffer consisted of 1% ovalbumin and 0.1% Pluronic F-68 in Assay Medium with the addition of human serum albumin at twice the indicated concentrations.
(§7) 1) Cells were plated at 5000 cells/well and incubated overnight.
(§8) 2) Cells were washed three times in PBS.
(§9) 3) Assay Medium (50 μl aliquot) with or without serum albumin was added to each well in the assay plate.
(§10) 4) Stocks of the test compounds and reference compounds were diluted to a concentration of 0.2 μM in Assay Buffer. […] 8) The cells were washed three times with PBS plus some liquid in each well. 9) A 100 μl aliquot of steadylite plus reagent was added to each well of the assay plate (reagent was light sensitive). 10) Each assay plate was covered with aluminum foil to protect it from light and shaken for 30 min at room temperature. 11) Each assay plate was read in a microtiter plate reader. Calculations and Results
The data from the microtiter plate reader was transferred to GraphPad Prism software. […]
A minimum of two replicates was measured for each sample. […]

[3] = target: T3, human GLP-1 receptor (Homo sapiens, UniProt P43220); assay: In vitro potency (CRE luciferase; whole cells), BHK CRE luc2P hGLP-1R
T3 construct: expressed in transfected cells; host or cells: BHK (parent line BHKTS13), BHK CRE luc2P hGLP-1R clone #6
Description: as §1, §2, §3, §4, §5, §6, §7, §8, §9, §10
The data from the microtiter plate reader was transferred to GraphPad Prism software. The software performs a non-linear regression (log(agonist) vs response).
A minimum of two replicates was measured for each sample. The reported values are averages of the replicates.

T2 sequence (P47871 26-477): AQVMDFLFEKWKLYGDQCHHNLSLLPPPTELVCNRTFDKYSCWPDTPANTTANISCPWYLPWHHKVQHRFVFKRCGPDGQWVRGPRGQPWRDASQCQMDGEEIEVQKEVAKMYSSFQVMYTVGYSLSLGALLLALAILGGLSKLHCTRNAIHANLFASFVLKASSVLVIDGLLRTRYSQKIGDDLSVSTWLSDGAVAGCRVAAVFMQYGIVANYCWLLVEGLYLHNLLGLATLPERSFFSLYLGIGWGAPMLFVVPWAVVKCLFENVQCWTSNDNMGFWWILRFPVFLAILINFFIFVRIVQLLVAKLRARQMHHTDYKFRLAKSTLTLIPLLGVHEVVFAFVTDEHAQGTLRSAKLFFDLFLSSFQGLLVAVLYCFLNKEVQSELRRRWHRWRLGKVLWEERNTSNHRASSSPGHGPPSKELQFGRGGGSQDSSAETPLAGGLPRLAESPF
T3 sequence (P43220 24-463): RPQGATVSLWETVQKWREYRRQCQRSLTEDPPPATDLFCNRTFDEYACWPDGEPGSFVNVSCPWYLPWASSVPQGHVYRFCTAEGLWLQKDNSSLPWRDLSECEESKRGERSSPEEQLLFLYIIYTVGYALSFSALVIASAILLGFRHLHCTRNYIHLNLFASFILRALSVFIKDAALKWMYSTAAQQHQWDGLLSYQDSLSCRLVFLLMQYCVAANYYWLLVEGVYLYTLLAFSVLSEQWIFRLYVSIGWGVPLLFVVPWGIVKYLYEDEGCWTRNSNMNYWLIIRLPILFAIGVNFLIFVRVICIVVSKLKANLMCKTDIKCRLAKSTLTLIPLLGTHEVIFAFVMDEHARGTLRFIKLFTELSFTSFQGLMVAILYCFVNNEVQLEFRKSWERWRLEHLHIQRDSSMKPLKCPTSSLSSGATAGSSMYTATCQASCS

| Molecule | EC50 [1] [nM] | EC50 [2] [nM] | EC50 [3] [nM] |
| --- | --- | --- | --- |
| CCCC[C@H](NC(=O)[C@H](C)NC(=O)[C@@H](NC(=O)[C@H](CO)NC(=O)[C@H](Cc1ccc(O)cc1)NC(=O)[C@H](CC(=O)O)NC(=O)[C@H](CO)NC(=O)[C@@H](NC(=O)[C@H](Cc1ccccc1)NC(=O)[C@@H](NC(=O)CNC(=O)[C@H](CCC(=O)O)NC(=O)C(C)(C)NC(=O)[C@@H](N)Cc1ccc(O)cc1)[C@@H](C)O)[C@@H](C)CC)[C@@H](C)CC)C(=O)N[C@@H](CC(=O)O)C(=O)N[C@@H](CCCCN)C(=O)N[C@H](C(=O)N[C@@H](CCCNC(=N)N)C(=O)N[C@@H](CCC(N)=O)C(=O)N[C@@H](CCC(N)=O)C(=O)N[C@@H](CC(=O)O)C(=O)N[C@@H](Cc1ccccc1)C(=O)N[C@H](C(=O)N[C@@H](CCCCNC(=O)CC[C@H](NC(=O)CC[C@H](NC(=O)CC[C@H](NC(=O)CCCCCCCCCCCCCCCCC(=O)O)C(=O)O)C(=O)O)C(=O)O)C(=O)N[C@@H](Cc1c[nH]c2ccccc12)C(=O)N[C@@H](CC(C)C)C(=O)N[C@@H](CC(C)C)C(=O)N[C@@H](C)C(=O)N[C@@H](CCC(N)=O)C(=O)N[C@@H](CCCCN)C(=O)NCC(=O)N[C@@H](CCCCN)C(=O)N[C@@H](CCC(=O)O)C(=O)N[C@@H](CCC(=O)O)C(=O)N[C@@H](CC(=O)O)C(=O)N[C@@H](Cc1c[nH]c2ccccc12)C(=O)N[C@@H](CCCCN)C(=O)N[C@@H](Cc1c[nH]cn1)C(=O)N[C@@H](CC(N)=O)C(=O)N[C@H](C(=O)N[C@H](C(=O)N[C@@H](CCC(N)=O)C(=O)O)[C@@H](C)O)[C@@H](C)CC)C(C)C)[C@@H](C)CC [Compound 40, N{Epsilon-24}-[(4S)-4-carboxy-4-[[(4S)-4-carboxy-4-[[(4S)-4-carboxy-4-(17-carboxyheptadecanoylamino)butanoyl]amino]butanoyl]amino]butanoyl]-[Aib2,Nle14,Arg18,Lys24,Glu33,Glu34]-hGIP] | 0.00447 | > 100 | > 100 |
| CCCC[C@H](NC(=O)[C@H](C)NC(=O)[C@@H](NC(=O)[C@H](CO)NC(=O)[C@H](Cc1ccc(O)cc1)NC(=O)[C@H](CC(=O)O)NC(=O)[C@H](CO)NC(=O)[C@@H](NC(=O)[C@H](Cc1ccccc1)NC(=O)[C@@H](NC(=O)CNC(=O)[C@H](CCC(=O)O)NC(=O)C(C)(C)NC(=O)[C@@H](N)Cc1ccc(O)cc1)[C@@H](C)O)[C@@H](C)CC)[C@@H](C)CC)C(=O)N[C@@H](CC(=O)O)C(=O)N[C@@H](CCCCN)C(=O)N[C@H](C(=O)N[C@@H](CCCNC(=N)N)C(=O)N[C@@H](CCC(N)=O)C(=O)N[C@@H](CCC(N)=O)C(=O)N[C@@H](CC(=O)O)C(=O)N[C@@H](Cc1ccccc1)C(=O)N[C@H](C(=O)N[C@@H](CCCCNC(=O)COCCOCCNC(=O)COCCOCCNC(=O)CC[C@H](NC(=O)CCCCCCCCCCCCCCCCC(=O)O)C(=O)O)C(=O)N[C@@H](Cc1c[nH]c2ccccc12)C(=O)N[C@@H](CC(C)C)C(=O)N[C@@H](CC(C)C)C(=O)N[C@@H](C)C(=O)N[C@@H](CCC(N)=O)C(=O)N[C@@H](CCCCN)C(=O)NCC(=O)N[C@@H](CCCCN)C(=O)N[C@@H](CCC(=O)O)C(=O)N[C@@H](CCC(=O)O)C(=O)N[C@@H](CC(=O)O)C(=O)N[C@@H](Cc1c[nH]c2ccccc12)C(=O)N[C@@H](CCCCN)C(=O)N[C@@H](Cc1c[nH]cn1)C(=O)N[C@@H](CC(N)=O)C(=O)N[C@H](C(=O)N[C@H](C(=O)N[C@@H](CCC(N)=O)C(=O)O)[C@@H](C)O)[C@@H](C)CC)C(C)C)[C@@H](C)CC [Compound 37, N{Epsilon-24}-[2-[2-[2-[[2-[2-[2-[[(4S)-4-carboxy-4-(17-carboxyheptadecanoylamino)butanoyl]amino]ethoxy]ethoxy]acetyl]amino]ethoxy]ethoxy]acetyl]-[Aib2,Nle14,Arg18,Lys24,Glu33,Glu34]-hGIP] | 0.00412 | > 100 | > 100 |
| Y[Aib]EGTFISDYSIA[Nle]DKIHQQDFVK([AEEA-AEEA-γGlu-C18 diacid])WLLAQKGKEEDWKHNITQ [Compound 35, N{Epsilon-24}-[2-[2-[2-[[2-[2-[2-[[(4S)-4-carboxy-4-(17-carboxyheptadecanoylamino)butanoyl]amino]ethoxy]ethoxy]acetyl]amino]ethoxy]ethoxy]acetyl]-[Aib2,Nle14,Lys24,Glu33,Glu34]-hGIP] | 0.00545 | > 100 | > 100 |
